Assay results reported in ChEMBL document CHEMBL1201862, “PubChem BioAssay data set” (2004).
The source made the active and inactive calls.

Legend:
[1] = Luminescence Cell-Based Dose Response HTS to Identify Activators of Luciferase Translation or Activity in H4 […] Cells. [Related pubchem assays: 1829 (Project Summary), 1814 (Primary HTS)]; type: functional
[2] = molecular target: DNA dC->dU-editing enzyme APOBEC-3A (Homo sapiens, UniProt P31941); assay: APOBEC3A DNA deaminase inhibitors, dose response, biochemical (AID 504722); type: functional
[3] = test system: H4; assay: Luminescence Cell-Based Dose Response HTS to Identify Activators of 5'UTR Stem-Loop Driven Prion Protein mRNA Translation in H4 Neuroglioblastoma Cells. [Related pubchem assays: 1829 (Project Summary), 1814 (Primary HTS)]; type: functional; conditions: Homo sapiens
[4] = molecular target: DNA dC->dU-editing enzyme APOBEC-3G (Homo sapiens, UniProt Q9HC16); assay: Dose Response confirmation of small molecule APOBEC3G DNA Deaminase Inhibitors via a fluorescence-based single-stranded DNA deaminase assay. [Related pubchem assays (depositor defined):AID493012, AID493028]; type: functional
[5] = molecular target: T1, Protein Tat (Human immunodeficiency virus type 1 group M subtype B (isolate HXB2)(HIV-1), UniProt P04608); type: functional;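 further: tat binding to TAR RNA read out by fluorescence polarization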
T1 sequence (P04608 whole entry): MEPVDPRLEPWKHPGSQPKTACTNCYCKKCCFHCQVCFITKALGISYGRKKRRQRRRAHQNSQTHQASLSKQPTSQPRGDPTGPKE

[6] = inhibitors of Vif binding to APOBEC3G peptide, primary screen, biochemical, TR-FRET, GST-Vif 1-94, biotin-A3G peptide, dose response retest (AID 1117319); type: functional;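 further: TR-FRET signal of purified GST-Vif binding a biotinylated A3G peptide; inhibitors lower the FRET signal by blocking Vif and A3G binding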
[7] = molecular target: T2, Voltage-gated N-type calcium channel alpha-1B subunit/Amyloid beta A4 precursor protein-binding family A member 1 (Homo sapiens, UniProt Q00975+Q02410); type: protein assay
[8] = molecular target: Large T antigen (Simian virus 40, UniProt P03070); type: functional, Betapolyomavirus macacae;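 further: Confirmatory-stage PubChem screen for compounds that inhibit SV40 T antigen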
[9] = molecular target: T2, Voltage-gated N-type calcium channel alpha-1B subunit/Amyloid beta A4 precursor protein-binding family A member 1; type: protein assay; remark: listed apart in the source
[10] = Luminescence Cell-Based Dose Confirmation HTS to Identify Activators of 5'UTR Stem-Loop Driven Alpha-Synuclein mRNA Translation in H4 Neuroglioblastoma Cells. [Related pubchem assays: 1829 (Project Summary), 1814 (Primary HTS)]; type: functional
[11] = cells
[12] = cytotoxicity toward NIH3T3 fibroblasts, dose response, counter-screen, cell-based, ATP luminescence, mouse fibroblasts (AID 2010); type: functional;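 further: cells exposed to compound for about 90 hours before reading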
[13] = inhibitors of intracellular T. cruzi replication, confirmation, NIH3T3 host cells, beta-gal luminescence (AID 2044); type: functional, cell-based;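 further: intracellular parasites grown in NIH/3T3 mouse fibroblasts as host cells; luminescent beta-galactosidase reporter signal from transgenic T. cruzi replicating inside host cells; inhibitors lower the luminescence signal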
[14] = molecular target: Heat shock protein HSP 90-alpha (Homo sapiens, UniProt P07900); type: functional, organism-based
[15] = molecular target: Induced myeloid leukemia cell differentiation protein Mcl-1 (Homo sapiens, UniProt Q07820); type: functional
[16] = M. tuberculosis H37Rv growth inhibitors, H37Rv strain (AID 1626); type: functional
[17] = molecular target: Beta-lactamase (Salmonella choleraesuis (strain SC-B67), UniProt Q5J463)
[18] = molecular target: T3, Zinc finger protein mex-5 (Caenorhabditis elegans, UniProt Q9XUB2); assay: MEX-5/TCR-2 RNA interaction inhibitors, dose response, biochemical, C. elegans, fluorescence polarization (AID 1960)
T3 sequence (Q9XUB2 whole entry): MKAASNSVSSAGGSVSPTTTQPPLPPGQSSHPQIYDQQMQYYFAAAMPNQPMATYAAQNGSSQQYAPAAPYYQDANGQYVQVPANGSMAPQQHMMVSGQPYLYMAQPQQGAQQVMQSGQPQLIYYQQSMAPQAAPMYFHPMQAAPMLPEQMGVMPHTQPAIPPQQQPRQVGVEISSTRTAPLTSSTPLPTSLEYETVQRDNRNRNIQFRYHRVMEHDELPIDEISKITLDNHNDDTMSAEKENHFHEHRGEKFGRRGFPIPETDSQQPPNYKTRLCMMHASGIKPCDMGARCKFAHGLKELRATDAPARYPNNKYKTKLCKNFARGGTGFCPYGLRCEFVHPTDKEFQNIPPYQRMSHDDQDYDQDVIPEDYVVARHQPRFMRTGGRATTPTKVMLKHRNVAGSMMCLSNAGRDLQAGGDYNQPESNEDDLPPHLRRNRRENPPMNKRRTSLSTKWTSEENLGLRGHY

[19] = molecular target: Beta-lactamase (Pseudomonas aeruginosa, UniProt Q79MP6);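 further: biochemical dose-response test of metallo-beta-lactamase enzyme inhibition, read out by epi-absorbance; purified recombinant IMP-1 metallo-beta-lactamase with nitrocefin as substrate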
[20] = molecular target: T4, RNA-binding protein pos-1 (Caenorhabditis elegans, UniProt G5EF15); assay: inhibitors of POS-1/mex-3 RNA binding, dose response, biochemical, fluorescence polarization (AID 1964);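 further: purified POS-1 fused to maltose binding protein made in E. coli; potency of compounds blocking POS-1 binding to fluorescent RNA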
T4 sequence (G5EF15 whole entry): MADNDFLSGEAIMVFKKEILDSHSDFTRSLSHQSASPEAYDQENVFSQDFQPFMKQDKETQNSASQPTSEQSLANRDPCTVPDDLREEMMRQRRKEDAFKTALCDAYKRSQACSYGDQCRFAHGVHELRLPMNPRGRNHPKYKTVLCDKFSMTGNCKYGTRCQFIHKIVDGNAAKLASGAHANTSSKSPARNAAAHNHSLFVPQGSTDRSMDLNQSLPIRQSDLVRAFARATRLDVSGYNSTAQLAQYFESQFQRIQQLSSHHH

[21] = molecular target: G-protein coupled receptor 35 (Homo sapiens, UniProt Q9HC97); assay: GPR35 antagonists blocking zaprinast-driven arrestin recruitment, primary screen, imaging, U2OS, beta-arrestin-GFP, zaprinast agonist (AID 2058); type: functional;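 further: antagonist potency meaning inhibition of agonist-induced arrestin redistribution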
[22] = cytotoxicity toward DRD oncogenic fibroblasts, dose response, cell-based, non-viral oncogenic, luminescence (AID 1934); type: functional; conditions: Homo sapiens
[23] = inhibitors of firefly luciferase expression or activity, dose response, H4 neuroglioma cells, luminescence (AID 1990); type: functional, cell-based
[24] = inhibitors of SNCA 5'UTR-driven reporter translation, confirmation, H4 neuroglioma cells, luminescence (AID 1988); type: functional, cell-based
[25] = test system: BJ; assay: cytotoxicity toward BJ-TERT fibroblasts, dose response, cell-based, RAS-independent, luminescence (AID 1933); type: functional; conditions: Homo sapiens
[26] = luciferase reporter signal reduction – luminescence, H4-C neuroglioblastoma cells, dose response (AID 2458); type: functional, cell-based;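 further: H4 neuroglioblastoma cells stably carrying a luciferase reporter gene fusion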
[27] = test system: BJ; assay: cells; type: functional, cell-based; conditions: Homo sapiens
[28] = cells; type: functional, cell-based
[29] = inhibitors of SNCA 5'UTR-driven translation, confirmation, luminescence, H4 neuroglioblastoma cells, dose confirmation (AID 2454); type: functional, cell-based;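 further: H4 neuroglioblastoma cells carrying an alpha-synuclein 5'UTR luciferase reporter; potency for inhibition of the luciferase signal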
[30] = test system: BJ; assay: cytotoxicity toward BJ-TERT-LT-ST fibroblasts, dose response, cell-based, RAS-independent, luminescence (AID 1935); type: functional; conditions: Homo sapiens;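 further: BJ fibroblasts immortalized with TERT plus LT and ST oncogenes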
[31] = cytotoxicity in HEK-293T cells, dose response, cytotoxicity control for BCR NF-kB inhibitor project, luminescence, B-cell screen hits (AID 489021); type: functional, cell-based;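 further: HEK-293T cells carrying an NF-kB luciferase reporter; cells exposed to compound for about 14 hours before viability readout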

T2 sequence (Q00975 whole entry): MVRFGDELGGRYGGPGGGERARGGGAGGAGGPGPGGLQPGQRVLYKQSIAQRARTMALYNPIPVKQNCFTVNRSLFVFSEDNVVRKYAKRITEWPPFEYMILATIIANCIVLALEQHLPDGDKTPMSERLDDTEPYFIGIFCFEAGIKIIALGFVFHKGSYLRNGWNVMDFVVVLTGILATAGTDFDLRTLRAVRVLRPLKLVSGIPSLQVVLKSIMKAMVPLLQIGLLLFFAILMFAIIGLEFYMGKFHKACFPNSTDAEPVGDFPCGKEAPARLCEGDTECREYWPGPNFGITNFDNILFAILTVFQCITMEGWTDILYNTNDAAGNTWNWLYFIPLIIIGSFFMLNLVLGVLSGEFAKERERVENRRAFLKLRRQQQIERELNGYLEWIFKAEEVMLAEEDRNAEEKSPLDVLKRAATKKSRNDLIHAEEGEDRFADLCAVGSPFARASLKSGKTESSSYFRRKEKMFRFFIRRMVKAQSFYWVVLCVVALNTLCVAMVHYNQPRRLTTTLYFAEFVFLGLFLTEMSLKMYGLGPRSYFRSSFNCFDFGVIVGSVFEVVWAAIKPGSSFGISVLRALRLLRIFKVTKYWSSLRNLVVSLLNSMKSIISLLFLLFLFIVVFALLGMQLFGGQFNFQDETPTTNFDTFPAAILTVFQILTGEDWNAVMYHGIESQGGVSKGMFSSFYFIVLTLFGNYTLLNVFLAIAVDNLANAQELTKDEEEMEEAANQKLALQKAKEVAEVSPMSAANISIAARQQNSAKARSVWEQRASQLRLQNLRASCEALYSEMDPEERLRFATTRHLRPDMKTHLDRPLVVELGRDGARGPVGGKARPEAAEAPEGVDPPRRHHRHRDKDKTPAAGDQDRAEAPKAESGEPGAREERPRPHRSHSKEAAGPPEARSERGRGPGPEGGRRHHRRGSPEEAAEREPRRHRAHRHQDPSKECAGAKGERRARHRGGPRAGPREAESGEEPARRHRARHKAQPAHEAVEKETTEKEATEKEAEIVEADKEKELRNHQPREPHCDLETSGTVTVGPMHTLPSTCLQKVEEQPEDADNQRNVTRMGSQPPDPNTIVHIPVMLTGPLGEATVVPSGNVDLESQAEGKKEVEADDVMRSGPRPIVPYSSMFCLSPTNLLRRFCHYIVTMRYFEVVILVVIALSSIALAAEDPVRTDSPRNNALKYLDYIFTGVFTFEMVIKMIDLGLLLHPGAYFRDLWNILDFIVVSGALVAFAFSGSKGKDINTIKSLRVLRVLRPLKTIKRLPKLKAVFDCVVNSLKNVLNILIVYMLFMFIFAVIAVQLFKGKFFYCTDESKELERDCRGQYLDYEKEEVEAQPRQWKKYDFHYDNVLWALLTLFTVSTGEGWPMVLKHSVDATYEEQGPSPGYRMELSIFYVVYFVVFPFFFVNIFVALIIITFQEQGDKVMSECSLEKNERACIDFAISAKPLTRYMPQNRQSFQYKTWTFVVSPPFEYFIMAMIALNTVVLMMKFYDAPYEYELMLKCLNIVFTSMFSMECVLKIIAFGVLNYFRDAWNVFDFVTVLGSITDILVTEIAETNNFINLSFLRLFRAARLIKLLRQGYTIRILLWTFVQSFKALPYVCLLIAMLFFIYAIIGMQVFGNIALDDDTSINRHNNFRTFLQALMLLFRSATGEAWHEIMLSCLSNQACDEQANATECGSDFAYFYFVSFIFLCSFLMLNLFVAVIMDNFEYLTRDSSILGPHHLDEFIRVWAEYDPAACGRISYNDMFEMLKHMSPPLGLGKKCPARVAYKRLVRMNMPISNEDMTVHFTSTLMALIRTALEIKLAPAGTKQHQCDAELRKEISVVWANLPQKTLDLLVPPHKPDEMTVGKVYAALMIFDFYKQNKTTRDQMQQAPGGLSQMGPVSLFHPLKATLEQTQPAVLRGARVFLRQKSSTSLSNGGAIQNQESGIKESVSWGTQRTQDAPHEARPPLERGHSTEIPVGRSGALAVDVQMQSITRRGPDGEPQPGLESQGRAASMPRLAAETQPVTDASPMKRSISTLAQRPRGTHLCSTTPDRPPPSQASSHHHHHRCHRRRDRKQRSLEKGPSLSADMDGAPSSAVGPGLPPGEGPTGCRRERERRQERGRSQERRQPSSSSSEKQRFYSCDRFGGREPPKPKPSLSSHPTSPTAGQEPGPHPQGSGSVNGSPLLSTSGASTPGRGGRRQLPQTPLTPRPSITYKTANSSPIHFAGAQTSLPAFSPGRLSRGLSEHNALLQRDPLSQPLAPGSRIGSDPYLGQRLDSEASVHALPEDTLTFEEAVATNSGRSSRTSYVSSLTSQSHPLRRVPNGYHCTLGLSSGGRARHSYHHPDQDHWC
T2 sequence (Q02410 whole entry): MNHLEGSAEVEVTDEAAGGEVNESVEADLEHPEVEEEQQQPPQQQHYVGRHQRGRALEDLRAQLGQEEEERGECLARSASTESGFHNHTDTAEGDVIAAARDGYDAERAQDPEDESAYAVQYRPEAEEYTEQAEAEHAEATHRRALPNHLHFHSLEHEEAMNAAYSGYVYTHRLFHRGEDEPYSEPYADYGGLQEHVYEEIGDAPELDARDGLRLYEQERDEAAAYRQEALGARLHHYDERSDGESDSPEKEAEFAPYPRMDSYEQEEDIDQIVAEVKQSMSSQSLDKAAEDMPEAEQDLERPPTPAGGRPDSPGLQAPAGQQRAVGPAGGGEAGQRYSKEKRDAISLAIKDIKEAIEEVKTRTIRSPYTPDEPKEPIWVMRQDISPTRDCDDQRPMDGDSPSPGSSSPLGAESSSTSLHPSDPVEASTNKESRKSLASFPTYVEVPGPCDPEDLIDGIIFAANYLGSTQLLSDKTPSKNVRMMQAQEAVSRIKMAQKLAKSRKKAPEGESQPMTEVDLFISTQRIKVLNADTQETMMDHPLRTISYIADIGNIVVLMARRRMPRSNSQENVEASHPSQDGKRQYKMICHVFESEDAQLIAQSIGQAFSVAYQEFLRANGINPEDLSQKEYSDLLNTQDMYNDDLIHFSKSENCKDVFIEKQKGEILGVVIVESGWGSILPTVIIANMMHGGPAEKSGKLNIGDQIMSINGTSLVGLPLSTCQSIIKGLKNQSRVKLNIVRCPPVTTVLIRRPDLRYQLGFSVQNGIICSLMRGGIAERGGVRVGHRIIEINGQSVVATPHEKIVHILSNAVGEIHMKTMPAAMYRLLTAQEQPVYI
Beta-lactamase (Pseudomonas aeruginosa, UniProt Q79MP6), sequence (Q79MP6 whole entry, the tested form may be a part): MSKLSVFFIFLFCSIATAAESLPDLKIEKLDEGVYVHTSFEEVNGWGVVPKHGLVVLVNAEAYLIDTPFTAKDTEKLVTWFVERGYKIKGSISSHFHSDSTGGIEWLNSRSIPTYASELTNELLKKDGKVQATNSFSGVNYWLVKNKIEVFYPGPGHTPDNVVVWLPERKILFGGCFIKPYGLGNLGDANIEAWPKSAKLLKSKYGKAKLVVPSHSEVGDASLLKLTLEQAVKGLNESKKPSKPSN
Beta-lactamase (Salmonella choleraesuis (strain SC-B67), UniProt Q5J463), sequence (Q5J463 whole entry): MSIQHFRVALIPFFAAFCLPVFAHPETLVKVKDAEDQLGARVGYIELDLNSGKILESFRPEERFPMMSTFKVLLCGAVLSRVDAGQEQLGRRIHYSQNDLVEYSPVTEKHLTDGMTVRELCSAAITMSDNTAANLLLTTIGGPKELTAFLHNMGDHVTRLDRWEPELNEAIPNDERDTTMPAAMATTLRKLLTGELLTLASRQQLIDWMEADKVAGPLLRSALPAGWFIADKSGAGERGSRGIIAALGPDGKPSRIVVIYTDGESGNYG
G-protein coupled receptor 35, sequence (Q9HC97 whole entry): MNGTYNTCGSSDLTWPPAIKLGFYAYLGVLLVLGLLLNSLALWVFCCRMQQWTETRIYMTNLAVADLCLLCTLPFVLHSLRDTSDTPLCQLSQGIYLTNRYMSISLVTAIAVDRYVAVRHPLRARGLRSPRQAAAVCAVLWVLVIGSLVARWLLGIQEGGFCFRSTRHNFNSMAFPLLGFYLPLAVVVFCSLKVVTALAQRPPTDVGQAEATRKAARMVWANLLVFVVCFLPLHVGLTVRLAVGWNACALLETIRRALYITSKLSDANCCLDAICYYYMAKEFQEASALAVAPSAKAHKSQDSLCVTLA
Large T antigen, sequence (P03070 whole entry): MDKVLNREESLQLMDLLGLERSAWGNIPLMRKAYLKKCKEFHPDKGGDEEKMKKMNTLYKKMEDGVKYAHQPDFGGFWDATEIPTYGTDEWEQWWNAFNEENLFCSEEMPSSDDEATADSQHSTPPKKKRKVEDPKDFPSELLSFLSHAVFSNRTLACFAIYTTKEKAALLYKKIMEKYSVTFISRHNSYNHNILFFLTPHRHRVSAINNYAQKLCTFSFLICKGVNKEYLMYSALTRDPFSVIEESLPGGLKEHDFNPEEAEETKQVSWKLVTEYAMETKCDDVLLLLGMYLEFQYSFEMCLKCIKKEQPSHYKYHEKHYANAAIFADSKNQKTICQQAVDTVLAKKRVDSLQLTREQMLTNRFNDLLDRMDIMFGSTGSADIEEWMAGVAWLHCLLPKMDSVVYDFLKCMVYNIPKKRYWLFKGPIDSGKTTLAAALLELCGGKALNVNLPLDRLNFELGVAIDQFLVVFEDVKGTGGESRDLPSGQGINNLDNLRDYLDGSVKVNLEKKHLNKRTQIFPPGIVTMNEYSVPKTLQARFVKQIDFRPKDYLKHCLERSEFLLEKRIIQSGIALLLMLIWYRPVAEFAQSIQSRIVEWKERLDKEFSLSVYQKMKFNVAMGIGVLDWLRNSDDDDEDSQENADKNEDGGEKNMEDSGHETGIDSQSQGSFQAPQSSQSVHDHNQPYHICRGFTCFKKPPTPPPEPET
DNA dC->dU-editing enzyme APOBEC-3A, sequence (P31941 whole entry): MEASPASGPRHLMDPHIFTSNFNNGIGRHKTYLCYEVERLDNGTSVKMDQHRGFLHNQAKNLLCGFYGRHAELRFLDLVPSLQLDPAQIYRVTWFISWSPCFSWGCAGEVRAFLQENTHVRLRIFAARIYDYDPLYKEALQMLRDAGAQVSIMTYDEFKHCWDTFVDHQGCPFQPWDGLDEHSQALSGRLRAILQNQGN

Cc1ccc(N2CSC3=C(C#N)C(c4cccs4)CC(=O)N3C2)cc1 (stereo not drawn)
EC50 [1]: 17 µM (active)
IC50 [2]: > 100 µM (inactive)
EC50 [3]: 7.71 µM (active)
IC50 [4]: 5.19 µM (active)
IC50 [5]: > 100 µM (active)
IC50 [6]: > 100 µM (active)
IC50 [7]: > 50 µM (inactive)
IC50 [8]: > 100 µM (active)
IC50 [9]: 3.74 µM (active)
EC50 [10]: 13.2 µM (active)

Cc1c(Cc2ccccc2)c(NCCN(C)C)n2c(nc3ccccc32)c1C#N
EC50 [11]: 0.015 µM (active)
EC50 [12]: 34.1 µM (active)
EC50 [13]: < 0.1 µM (active)
AC50 [14]: 2.37 µM (active)
IC50 [15]: 3.29 µM (active)

CN1C(=O)C(=CNc2ccc3c(c2)CCC3)C(=O)N(C)C1=O
IC50 [16]: > 100 µM (active)

CCCCOC(=O)c1ccc(NC(=O)C(=O)NCc2ccccn2)cc1
IC50 [16]: > 100 µM (active)

CC1(C)CC(=O)C(/C=N/c2ccc3c(c2)OCO3)=C(O)C1
IC50 [16]: > 100 µM (active)

CN1C(=O)/C(=C\c2ccc(N(C)C)cc2)OC1=S
IC50 [17]: > 59.6 µM (inactive)
EC50 [18]: > 300 µM (inconclusive)
IC50 [19]: > 59.6 µM (inactive)
EC50 [20]: > 300 µM (not active)
IC50 [21]: 1.12 µM (active)

CCOC(=O)Cc1ccc(NC(=O)c2ccc(C(C)(C)C)cc2)cc1
EC50 [22]: 49.5 µM (active)
EC50 [23]: < 0.1 µM (active)
EC50 [24]: < 0.1 µM (active)
EC50 [25]: 60.1 µM (active)
EC50 [26]: 0.266 µM (active)
EC50 [27]: > 150 µM (not active)
EC50 [28]: 0.508 µM (active)
EC50 [29]: 0.483 µM (active)
EC50 [30]: > 150 µM (inconclusive)
IC50 [31]: 42.8 µM (inactive)
